Laboratory results: article PMC3894693 (Biochemical and biophysical research communications, 2013)

Tests used:
[1] = target: T1, Pyruvate carboxylase (RePC) (Rhizobium etli, UniProt Q2K340); assay: X-ray co-crystal structure; type: binding
[2] = target: T1, Pyruvate carboxylase (RePC); assay: ITC; type: binding

Kd [1] | Kd [2] | SMILES
130 µM |  | O=C(O)C(=O)O [oxalate]
 | ~2000 µM | CC(=O)C(=O)O [pyruvate]
